US5072038A, “2,3,4,5-tetrahalogenobenzene derivatives” (Bayer Aktiengesellschaft, priority 1984, dated 1991)
≈ marks a conversion by molar mass, not a printed value. Structures can show the parent of a compound that is named as a salt. Where two headings read alike, the source gives them in different places.

Columns and labels:
Experiment in all cases: MIC, agar dilution test
Format in all cases: cell-based
E. coli T 7 = conditions: Escherichia coli, T7
Text: (§1) | Agar dilution test/isosensitest medium

Klebsiella 63 = conditions: agar dilution test/isosensitest medium
Text: as §1

Providencia 12012 = conditions: agar dilution test/isosensitest medium
Text: as §1

Klebsiella 6179 = conditions: agar dilution test/isosensitest medium
Text: as §1

Staph. FK 422 = conditions: agar dilution test/isosensitest medium
Text: as §1

Proteus 1017 = conditions: agar dilution test/isosensitest medium
Text: as §1

Providencia 12052 = conditions: agar dilution test/isosensitest medium
Text: as §1

E. coli 445/7 = conditions: Escherichia coli, agar dilution test/isosensitest medium
Text: as §1

Pseudom. Ellsworth = conditions: agar dilution test/isosensitest medium
Text: as §1

Staph. 1756 = conditions: agar dilution test/isosensitest medium
Text: as §1

Staph. 133 = conditions: agar dilution test/isosensitest medium
Text: as §1

E. coli Neumann = conditions: Escherichia coli, agar dilution test/isosensitest medium
Text: as §1

[1] = E. coli T 7, agar dilution test/isosensitest medium, read-out: MIC
[2] = E. coli 445/7 (first MIC table)
[3] = 445/7, E. coli 455/7 (second MIC table)

| SMILES | MIC (E. coli T 7; [1]) [µg/mL] | MIC (Klebsiella 63) [µg/mL] | MIC (Providencia 12012) [µg/mL] | MIC (Klebsiella 6179) [µg/mL] | MIC (Staph. FK 422) [µg/mL] | MIC (Proteus 1017) [µg/mL] | MIC (Providencia 12052) [µg/mL] | MIC (E. coli 445/7; [2]) [µg/mL] | MIC (Pseudom. Ellsworth) [µg/mL] | MIC (Staph. 1756) [µg/mL] | MIC (Staph. 133) [µg/mL] | MIC (E. coli Neumann) [µg/mL] | MIC (E. coli T 7) [µg/mL] | MIC (E. coli 445/7; [3]) [µg/mL] |
| --- | --- | --- | --- | --- | --- | --- | --- | --- | --- | --- | --- | --- | --- | --- |
| O=C(O)c1cn(C2CC2)c2c(F)c(N3CCNCC3)c(Cl)cc2c1=O [Example 1, 6-chloro-1-cyclopropyl-8-fluoro-1,4-dihydro-4-oxo-7-(1-piperazinyl)-3-quinolinecarboxylic acid] | ≤ 0.015 | ≤ 0.015 | ≤ 0.015 | 0.03 (≈ 0.082 µM) | 0.25 (≈ 0.683 µM) | ≤ 0.015 | 8 (≈ 21.9 µM) | 4 (≈ 10.9 µM) | 0.06 (≈ 0.164 µM) | 0.25 (≈ 0.683 µM) | 0.25 (≈ 0.683 µM) | ≤ 0.015 |  |  |
| CC1CN(c2c(Cl)cc3c(=O)c(C(=O)O)cn(C4CC4)c3c2F)CCN1 (stereo not drawn) [Example 2] | ≤ 0.015 | 0.03 (≈ 0.079 µM) | 0.03 (≈ 0.079 µM) | 0.03 (≈ 0.079 µM) | 0.25 (≈ 0.658 µM) |  | 16 (≈ 42.1 µM) | 8 (≈ 21.1 µM) |  | 0.5 (≈ 1.32 µM) | 0.25 (≈ 0.658 µM) | ≤ 0.015 |  |  |
| CCC1CN(c2c(Cl)cc3c(=O)c(C(=O)O)cn(C4CC4)c3c2F)CCN1 (stereo not drawn) [Example 3] | ≤ 0.015 | 0.03 (≈ 0.0762 µM) |  | ≤ 0.015 | 0.25 (≈ 0.635 µM) |  | 16 (≈ 40.6 µM) | 8 (≈ 20.3 µM) |  | 0.25 (≈ 0.635 µM) | 0.25 (≈ 0.635 µM) | ≤ 0.015 |  |  |
| CC1CN(c2c(Cl)cc3c(=O)c(C(=O)O)cn(C4CC4)c3c2F)CC(C)N1 (stereo not drawn) [Example 5] | ≤ 0.015 | 0.03 (≈ 0.0762 µM) |  | 0.03 (≈ 0.0762 µM) | 0.25 (≈ 0.635 µM) |  | 32 (≈ 81.3 µM) | 8 (≈ 20.3 µM) |  | 0.5 (≈ 1.27 µM) | 0.5 (≈ 1.27 µM) | ≤ 0.015 |  |  |
| CN1CCN(c2c(Cl)cc3c(=O)c(C(=O)O)cn(C4CC4)c3c2F)CC1 [Example 6] | ≤ 0.015 | 0.015 (≈ 0.0395 µM) | 0.03 (≈ 0.079 µM) | 0.015 (≈ 0.0395 µM) | 0.025 (≈ 0.0658 µM) | 0.06 (≈ 0.158 µM) | 4 (≈ 10.5 µM) | 4 (≈ 10.5 µM) |  | 0.5 (≈ 1.32 µM) | 0.25 (≈ 0.658 µM) | ≤ 0.015 |  |  |
| O=C(O)c1cn(C2CC2)c2c(F)c(N3CCN(CCO)CC3)c(Cl)cc2c1=O [Example 7] | ≤ 0.015 | 0.06 (≈ 0.146 µM) |  | 0.06 (≈ 0.146 µM) | 0.5 (≈ 1.22 µM) | 0.125 (≈ 0.305 µM) | 16 (≈ 39 µM) | 16 (≈ 39 µM) |  | 0.5 (≈ 1.22 µM) | 0.25 (≈ 0.61 µM) | ≤ 0.015 |  |  |
| O=C(O)c1cn(C2CC2)c2c(F)c(N3CCNC(C4CCCCC4)C3)c(Cl)cc2c1=O (stereo not drawn) [Example 8] | ≤ 0.015 |  |  |  | 0.06 (≈ 0.134 µM) |  |  |  |  | 0.06 (≈ 0.134 µM) | 0.06 (≈ 0.134 µM) |  |  |  |
| CCN1CCN(c2c(Cl)cc3c(=O)c(C(=O)O)cn(C4CC4)c3c2F)CC1 [Example 10, 6-chloro-1-cyclopropyl-7-(4-ethyl-1-piperazinyl)-8-fluoro-1,4-dihydro-4-oxo-3-quinolinecarboxylic acid] |  | 0.125 (≈ 0.317 µM) |  | 0.06 (≈ 0.152 µM) |  |  |  | 16 (≈ 40.6 µM) |  |  |  | ≤ 0.015 | 0.025 (≈ 0.0635 µM) |  |
| CC(=O)CCN1CCN(c2c(Cl)cc3c(=O)c(C(=O)O)cn(C4CC4)c3c2F)CC1 [Example 12, 6-chloro-1-cyclopropyl-8-fluoro-1,4-dihydro-4-oxo-7-[4-(3-oxobutyl)-1-piperazinyl]-3-quinolinecarboxylic acid] | ≤ 0.015 | ≤ 0.015 | ≤ 0.015 | 0.06 (≈ 0.138 µM) | 0.25 (≈ 0.574 µM) | 0.03 (≈ 0.0688 µM) | 16 (≈ 36.7 µM) |  | 0.125 (≈ 0.287 µM) | 0.25 (≈ 0.574 µM) | 0.25 (≈ 0.574 µM) | ≤ 0.015 |  | 8 (≈ 18.4 µM) |
| CC(=O)CN1CCN(c2c(Cl)cc3c(=O)c(C(=O)O)cn(C4CC4)c3c2F)CC1.Cl [Example 13, 6-chloro-1-cyclopropyl-8-fluoro-1,4-dihydro-4-oxo-7-[4-(2-oxopropyl)-1-piperazinyl]-3-quinolinecarboxylic acid hydrochloride] | ≤ 0.015 | ≤ 0.015 | ≤ 0.015 | 0.06 | 0.25 | ≤ 0.015 | 16 |  | 0.125 | 0.25 | 0.25 | ≤ 0.015 |  | 8 |
| O=C(CN1CCN(c2c(Cl)cc3c(=O)c(C(=O)O)cn(C4CC4)c3c2F)CC1)c1ccccc1 [Example 14, 6-chloro-1-cyclopropyl-8-fluoro-1,4-dihydro-4-oxo-7-[4-(2-oxo-2-phenylethyl)-1-piperazinyl]-3-quinolinecarboxylic acid] | ≤ 0.015 | 0.06 (≈ 0.124 µM) | 0.06 (≈ 0.124 µM) | 0.25 (≈ 0.517 µM) |  | 0.125 (≈ 0.258 µM) | 16 (≈ 33.1 µM) |  |  |  |  | ≤ 0.015 |  | 2 (≈ 4.13 µM) |
| CC1CN(c2c(Cl)cc3c(=O)c(C(=O)O)cn(C4CC4)c3c2F)CC(C)O1 (stereo not drawn) [Example 17, 6-chloro-1-cyclopropyl-8-fluoro-1,4-dihydro-7-(2,6-dimethyl-4-morpholinyl)-4-oxo-3-quinolinecarboxylic acid] |  |  |  |  | ≤ 0.015 |  |  |  |  | ≤ 0.015 |  |  |  |  |
| CN1CCN(c2c(F)cc3c(=O)c(C(=O)O)cn(C4CC4)c3c2Cl)CC1 [Example 19, 8-chloro-1-cyclopropyl-6-fluoro-1,4-dihydro-7-(4-methyl-1-piperazinyl)-4-oxo-3-quinolinecarboxylic acid] | ≤ 0.015 | 0.03 (≈ 0.079 µM) | 0.03 (≈ 0.079 µM) | 0.03 (≈ 0.079 µM) | 0.06 (≈ 0.158 µM) | 0.03 (≈ 0.079 µM) | 4 (≈ 10.5 µM) |  | 0.125 (≈ 0.329 µM) | 0.06 (≈ 0.158 µM) | 0.06 (≈ 0.158 µM) | ≤ 0.015 |  | 1 (≈ 2.63 µM) |
| CC1CN(c2c(F)cc3c(=O)c(C(=O)O)cn(C4CC4)c3c2Cl)CCN1 (stereo not drawn) [Example 20, 8-chloro-1-cyclopropyl-6-fluoro-1,4-dihydro-7-(3-methyl-1-piperazinyl)-4-oxo-3-quinolinecarboxylic acid] | ≤ 0.015 | ≤ 0.015 | 0.03 (≈ 0.079 µM) | 0.03 (≈ 0.079 µM) | 0.06 (≈ 0.158 µM) | ≤ 0.015 | 4 (≈ 10.5 µM) |  | 0.25 (≈ 0.658 µM) | 0.06 (≈ 0.158 µM) | 0.06 (≈ 0.158 µM) | ≤ 0.015 |  | 1 (≈ 2.63 µM) |
| O=C(O)c1cn(C2CC2)c2c(Cl)c(N3CCNCC3)c(F)cc2c1=O [Example 21, hydrochloride] | ≤ 0.015 | 0.06 | 0.06 | 0.03 | 0.125 | 0.03 | 1 |  |  | 0.125 | 0.06 | ≤ 0.015 |  | 1 |
| CC1CN(c2c(Cl)cc3c(=O)c(C(=O)O)cn(C4CC4)c3c2Cl)CCN1 (stereo not drawn) [Example 22, 6,8-dichloro-1-cyclopropyl-1,4-dihydro-7-(3-methyl-1-piperazinyl)-4-oxo-3-quinolinecarboxylic acid] | ≤ 0.015 | 0.03 (≈ 0.0757 µM) | 0.06 (≈ 0.151 µM) | 0.06 (≈ 0.151 µM) | 0.125 (≈ 0.315 µM) | 0.06 (≈ 0.151 µM) | 2 (≈ 5.05 µM) |  |  | 0.125 (≈ 0.315 µM) | 0.125 (≈ 0.315 µM) | ≤ 0.015 |  | 2 (≈ 5.05 µM) |
| CCn1cc(C(=O)O)c(=O)c2cc(F)c(N3CCNCC3)cc21 [Norfloxacin, 1-ethyl-6-fluoro-1,4-dihydro-4-oxo-7-(1-piperazinyl)-3-quinolinecarboxylicacid, reference compound] | 0.03 (≈ 0.0939 µM) | 0.125 (≈ 0.391 µM) | 0.03 (≈ 0.0939 µM) | 0.25 (≈ 0.783 µM) | 0.5 (≈ 1.57 µM) | 0.03 (≈ 0.0939 µM) | 64 (≈ 200 µM) |  | 0.125 (≈ 0.391 µM) | 1 (≈ 3.13 µM) | 0.5 (≈ 1.57 µM) | 0.06 (≈ 0.188 µM) |  | 16 (≈ 50.1 µM) |
